Laboratory results published in patent US11649246B2, “Salts of 4-amino-N-(l-((3-chloro-2-fluorophenyl)amino)-6-methylisoquinolin-5-yl)thieno[3,2-D]pyrimidine-7-carboxamide, and crystalline forms thereof” (Hanmi Pharm. Co., Ltd., priority 2017, dated 2023).
In brackets after ≈: the same amount, converted by molar mass. Where two headings read alike, the source gives them in different places.

How the values were obtained:
Format in all cases: physicochemical
[1] = Solubility of bis-hydrochloride Form I by HPLC test and observation test
Experimental: Solubility was measured by HPLC according to KP, USP and EP general chapters. […] The results of solubility were same between HPLC test and observation test.

[2] = Hygroscopicity by dynamic vapor sorption (DVS); conditions: Form I trihydrate
Experimental: Dynamic vapor sorption (DVS) analysis was performed in a DVS advantage (Surface measurement system, United Kingdom) analyzer at 25° C. with a relative humidity of 0% to 90%. A sample in an amount of 10 mg was placed into a wire-mesh vapor sorption balance pan and then attached to a DVS advantage dynamic vapor sorption balance via surface measurement systems. […] Upon completion of the sorption cycle, the sample was dried using the same process while maintaining a relative humidity of 0%. The changes in the sample weight during the adsorption/desorption cycle (repeated 3 times) were recorded and the hygroscopicity of the sample was measured. DVS isotherm diagrams are presented in FIGS. 1, 3, 6, 10, 13, 16 and 19 where Target PP (%) refers to relative humidity, “SORP” refers to adsorption and “DESORP” refers to desorption.
Hygroscopicity was measured by DVS where the DVS curve for Formula (I) bis-hydrochloride was recorded in a DVS Advantage I analyzer (SMS, United Kingdom). The DVS was operated over 3 cycles for measurement of the surface adsorption effects of water, from 0% RH to 90% RH at 25°.

[3] = Stress stability test at 60° C.
Experimental: In order to compare physicochemical stability among the crystalline form prepared in Example 3 (crystalline Formula (I) bis-hydrochloride Form I) and 16 (Formula (I) crystalline free base), and the amorphous form prepared in Comparative Example 1, a stress stability test was conducted by storing samples at 60° C., for different periods of time up to 4 weeks.

[4] = Partition / distribution coefficient octanol-water (Sirius T3); conditions: octanol/water
Experimental: The partition coefficient, Log P, was measured with a T3 (Sirius Analytical Instrument Ltd., UK). About 1 mg of Formula (I) bis-hydrochloride was added to a 15 mL GLpKa beaker, dissolved with octanol/150 mM KCl, adjusted to pH 1.8 with 0.5 N HCl, and titrated up to pH 12.2 with 0.5 N KOH. The partition coefficient of the octanol-water system was determined by correcting the difference between titration curves of the blank from the titration curve, by inserting the value of the dissociation constant measured previously.

[5] = Dissociation constant (pKa), GLpKa method, Sirius T3; conditions: for pKa: MDM co-solvent solution (ISA Water/MeOH/ACN/p-Dioxane), 43% MDM solution
Experimental: Based on these pKa values, Formula (I) is believed to be weakly basic compound.
The dissociation, pKa, was measured with a T3 (Sirius Analytical Instrument Ltd., UK). About 1 mg of Formula (I) bis-hydrochloride was transferred to a GLpKa beaker, dissolved with 43% to 53% MDM solution (ISA Water/MeOH/ACN/p-Dioxane=40/20/20/20, Sirius), adjusted to pH 1.8 with 0.5 N HCl, and titrated up to pH 12.2 with 0.5 N KOH. The pKa as an aqueous solution was calculated by extrapolation.

[6] = as an aqueous solution, calculated by extrapolation

Cc1ccc2c(Nc3cccc(Cl)c3F)nccc2c1NC(=O)c1csc2c(N)ncnc12 [Example 3, 4-amino-N-(1-((3-chloro-2-fluorophenyl)amino)-6-methylisoquinolin-5-yl)thieno[3,2-d]pyrimidine-7-carboxamide]
solubility ([1]; ACN): 113431 mL/g | Solubility Observation ([1]; ACN, listed as Formula (I) bis-hydrochloride Form I): Practically insoluble | solubility ([1]; DMSO): 8 mL/g | Solubility Observation ([1]; DMSO, listed as Formula (I) bis-hydrochloride Form I): Freely soluble | solubility ([1]; Dichloromethane): 366289 mL/g | Solubility Observation ([1]; Dichloromethane, listed as Formula (I) bis-hydrochloride Form I): Practically insoluble | solubility ([1]; Ethanol): 1316 mL/g | Solubility Observation ([1]; Ethanol, listed as Formula (I) bis-hydrochloride Form I): Very slightly soluble | solubility ([1]; Ethyl acetate): 356535 mL/g | Solubility Observation ([1]; Ethyl acetate, listed as Formula (I) bis-hydrochloride Form I): Practically insoluble | solubility ([1]; Ethyl ether): 522061 mL/g | Solubility Observation ([1]; Ethyl ether, listed as Formula (I) bis-hydrochloride Form I): Practically insoluble | solubility ([1]; Methanol): 58 mL/g | Solubility Observation ([1]; Methanol, listed as Formula (I) bis-hydrochloride Form I): Sparingly soluble | solubility ([1]; Water): 654940 mL/g | Solubility Observation ([1]; Water, listed as Formula (I) bis-hydrochloride Form I): Practically insoluble | solubility ([1]; aqueous buffer, thermodynamic from solid, pH 3.0 buffer, read-out: Solubility): 20 µg/mL (≈ 41.8 µM) | solubility ([1]; aqueous buffer, thermodynamic from solid, pH 4.0 buffer, read-out: Solubility): 3 µg/mL (≈ 6.26 µM) | solubility ([1]; aqueous buffer, thermodynamic from solid, pH 5.0 buffer, read-out: Solubility): 0.09 µg/mL (≈ 0.188 µM) | solubility ([1]; aqueous buffer, thermodynamic from solid, pH 6.0 buffer, read-out: Solubility): 0.1 µg/mL (≈ 0.209 µM) | solubility ([1]; aqueous buffer, thermodynamic from solid, pH 6.8 buffer, read-out: Solubility): 0.09 µg/mL (≈ 0.188 µM) | solubility ([1]; aqueous buffer, thermodynamic from solid, pH 7.0 buffer, read-out: Solubility): 0.06 µg/mL (≈ 0.125 µM) | solubility ([1]; aqueous buffer, thermodynamic from solid, pH 8.0 buffer, read-out: Solubility): 0.05 µg/mL (≈ 0.104 µM) | solubility ([1]; n-Hexane): 22316479 mL/g | Solubility Observation ([1]; n-Hexane, listed as Formula (I) bis-hydrochloride Form I): Practically insoluble | solubility ([1]; organic solvent or mixture, thermodynamic from solid, ACN, read-out: Solubility): 8 µg/mL (≈ 16.7 µM) | solubility ([1]; organic solvent or mixture, thermodynamic from solid, DMSO, read-out: Solubility): 131000 µg/mL (≈ 273000 µM) | solubility ([1]; organic solvent or mixture, thermodynamic from solid, Dichloromethane, read-out: Solubility): 2.7 µg/mL (≈ 5.64 µM) | solubility ([1]; organic solvent or mixture, thermodynamic from solid, Ethanol, read-out: Solubility): 800 µg/mL (≈ 1670 µM) | solubility ([1]; organic solvent or mixture, thermodynamic from solid, Ethyl acetate, read-out: Solubility): 2.8 µg/mL (≈ 5.85 µM) | solubility ([1]; organic solvent or mixture, thermodynamic from solid, Ethyl ether, read-out: Solubility): 1.9 µg/mL (≈ 3.97 µM) | solubility ([1]; organic solvent or mixture, thermodynamic from solid, Methanol, read-out: Solubility): 17400 µg/mL (≈ 36300 µM) | solubility ([1]; organic solvent or mixture, thermodynamic from solid, n-Hexane, read-out: Solubility): 0.04 µg/mL (≈ 0.0835 µM) | solubility ([1]; pH 1.2 buffer): 3811 mL/g | Solubility Observation ([1]; pH 1.2 buffer, listed as Formula (I) bis-hydrochloride Form I): Very slightly soluble | solubility ([1]; pH 2.0 buffer): 1688 mL/g | Solubility Observation ([1]; pH 2.0 buffer, listed as Formula (I) bis-hydrochloride Form I): Very slightly soluble | Solubility Observation ([1]; pH 3.0 buffer): Practically insoluble | solubility ([1]; pH 3.0 buffer): 42855 mL/g | Solubility Observation ([1]; pH 4.0 buffer): Practically insoluble | solubility ([1]; pH 4.0 buffer): 331069 mL/g | Solubility Observation ([1]; pH 5.0 buffer): Practically insoluble | solubility ([1]; pH 5.0 buffer): 10759731 mL/g | Solubility Observation ([1]; pH 6.0 buffer): Practically insoluble | solubility ([1]; pH 6.0 buffer): 9770999 mL/g | Solubility Observation ([1]; pH 6.8 buffer): Practically insoluble | solubility ([1]; pH 6.8 buffer): 11528283 mL/g | Solubility Observation ([1]; pH 7.0 buffer): Practically insoluble | solubility ([1]; pH 7.0 buffer): 16139597 mL/g | Solubility Observation ([1]; pH 8.0 buffer): Practically insoluble | solubility ([1]; pH 8.0 buffer): 21884199 mL/g | solubility ([1]; simulated gastric fluid, thermodynamic from solid, pH 1.2 buffer, read-out: Solubility): 300 µg/mL (≈ 626 µM) | solubility ([1]; simulated gastric fluid, thermodynamic from solid, pH 2.0 buffer, read-out: Solubility): 600 µg/mL (≈ 1250 µM) | solubility ([1]; thermodynamic from solid, Water, read-out: Solubility): 1.5 µg/mL (≈ 3.13 µM) | water content (DVS) ([2]; at 20% relative humidity (sorption and desorption)): about 9% | water content (DVS) ([2]; at 90% relative humidity (sorption and desorption)): about 14% | Purity(%) (A % by HPLC) ([3]; 2 weeks): 99.8% | Total impurities(%) (A % by HPLC) ([3]; 2 weeks): 0.16% | Purity(%) (A % by HPLC) ([3]; 4 weeks): 99.8% | Total impurities(%) (A % by HPLC) ([3]; 4 weeks): 0.23% | Purity(%) (A % by HPLC) ([3]; 1 day): 99.8% | Total impurities(%) (A % by HPLC) ([3]; 1 day): 0.17% | Purity(%) (A % by HPLC) ([3]; 3 days): 99.8% | Total impurities(%) (A % by HPLC) ([3]; 3 days): 0.15% | Purity(%) (A % by HPLC) ([3]; 7 days): 99.8% | Total impurities(%) (A % by HPLC) ([3]; 7 days): 0.19% | Purity(%) (A % by HPLC) ([3]; Initial): 99.8% | Total impurities(%) (A % by HPLC) ([3]; Initial): 0.17% | physicochemical stability (summary in words) ([3]; up to 4 weeks, listed as crystalline form (Form I) of the dihydrochloride): remarkably superior stability over the amorphous form | logD ([4]; pH 1): 0.02 | logD ([4]; pH 1.2): 0.05 | logD ([4]; pH 2): 0.77 | logD ([4]; pH 3): 2.64 | logD ([4]; pH 4): 4.26 | logD ([4]; pH 5): 5.06 | logD ([4]; pH 6): 5.22 | logD ([4]; pH 6.5): 5.24 | logD ([4]; pH 7): 5.24 | logD ([4]; pH 8): 5.24 | logD ([4]; pH 9): 5.23 | logD ([4]; pH 10): 5.11 | logD ([4]; pH 11): 4.71 | logD ([4]; pH 12): 4.4 | pKa ([5]; column 1, read-out: pKa (first value)): 3.85 | pKa ([5]; column 1, read-out: pKa (second value)): 4.71 | pKa ([5]; column 1, read-out: pKa (third value)): 10.4 | pKa ([5]; column 2, read-out: pKa (first value)): 3.88 | pKa ([5]; column 2, read-out: pKa (second value)): 4.7 | pKa ([5]; column 2, read-out: pKa (third value)): 10.4 | pKa ([5]; column 3, read-out: pKa (first value)): 3.84 | pKa ([5]; column 3, read-out: pKa (second value)): 4.69 | pKa ([5]; column 3, read-out: pKa (third value)): 10.4 | pKa1 [5, 6]: 3.86 | pKa2 [5, 6]: 4.73 | pKa3 ([5]; as an aqueous solution, calculated by extrapolation, listed as Formula (I) bis-hydrochloride Form I): 10.3
